The compounds below were run on AMPK (assay: AMPK activation, enzyme-linked immunosorbent assay).
Type: cell-based
Outline: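 Each compound's EC50 for AMPK activation was the endpoint. In a cell-based assay, AMPK activity was read out as the relative concentration of phosphorylated acetyl-CoA carboxylase, a product of AMPK, measured by enzyme-linked immunosorbent assay. Values fell into the ranges less than 1 μM, 1-10 μM, 10-20 μM, 20-50 μM, 50-100 μM, and >100 μM.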

SMILES | EC50 [nM]
O=C(NC1CCN(Cc2ccccc2)CC1)c1ccc(OC2CCN(Cc3ccccn3)CC2)c(F)c1 [Compound 39, N-(1-benzylpiperidin-4-yl)-3-fluoro-4-(1-(pyridin-2-ylmethyl)piperidin-4-yloxy)benzamide] | 1000 to 10000
O=C(NC1CCN(C(=O)c2ccncc2)CC1)c1ccc(OC2CCN(c3ccc(C(F)(F)F)cc3)CC2)c(F)c1 [Compound 40, 3-fluoro-N-(1-isonicotinoylpiperidin-4-yl)-4-(1-(4-(trifluoromethyl)phenyl)piperidin-4-yloxy)benzamide] | < 1000
N#Cc1ccc(CN2CCC(Oc3ccc(C(=O)NC4CCN(Cc5ccccc5)CC4)cc3F)CC2)cc1 [Compound 41, N-(1-benzylpiperidin-4-yl)-4-(1-(4-cyanobenzyl)piperidin-4-yloxy)-3-fluorobenzamide] | < 1000
Cc1ccc(CN2CCC(Oc3ccc(C(=O)NC4CCN(Cc5ccccc5)CC4)cc3F)CC2)cc1 [Compound 42, N-(1-benzylpiperidin-4-yl)-3-fluoro-4-(1-(4-methylbenzyl)piperidin-4-yloxy)benzamide] | < 1000
N#Cc1ccc(CN2CCC(NC(=O)c3ccc(OC4CCN(c5ccc(C(F)(F)F)cc5)CC4)c(F)c3)CC2)cc1 [Compound 43, N-(1-(4-cyanobenzyl)piperidin-4-yl)-3-fluoro-4-(1-(4-(trifluoromethyl)phenyl)piperidin-4-yloxy)benzamide] | < 1000
N#Cc1ccc(CN2CCC(NC(=O)c3ccc(OC4CCN(c5ccc(C#N)cc5)CC4)c(F)c3)CC2)cc1 [Compound 45, N-(1-(4-cyanobenzyl)piperidin-4-yl)-4-(1-(4-cyanophenyl)piperidin-4-yloxy)-3-fluorobenzamide] | < 1000
N#Cc1ccc(CN2CCC(Oc3ccc(C(=O)NC4CCN(Cc5ccccc5)CC4)c(Cl)c3)CC2)cc1 [Compound 51, N-(1-benzylpiperidin-4-yl)-2-chloro-4-(1-(4-cyanobenzyl)piperidin-4-yloxy)benzamide] | < 1000
O=C(NC1CCN(Cc2ccccc2)CC1)c1ccc(OC2CCN(Cc3ccc(OC(F)(F)F)cc3)CC2)c(Cl)c1 [Compound 54, N-(1-benzylpiperidin-4-yl)-3-chloro-4-(1-(4-(trifluoromethoxy)benzyl)piperidin-4-yloxy)benzamide] | < 1000
O=C(NC1CCN(Cc2ccccc2)CC1)c1ccc(OC2CCN(Cc3ccc(C(F)(F)F)cc3)CC2)c(F)c1 [Compound 55, N-(1-benzylpiperidin-4-yl)-3-fluoro-4-(1-(4-(trifluoromethyl)benzyl)piperidin-4-yloxy)benzamide] | < 1000
O=C(NC1CCN(Cc2ccccc2)CC1)c1ccc(OC2CCN(Cc3ccc(C(F)(F)F)cc3)CC2)c(Cl)c1 [Compound 56, N-(1-benzylpiperidin-4-yl)-3-chloro-4-(1-(4-(trifluoromethyl)benzyl)piperidin-4-yloxy)benzamide] | < 1000
O=C(NC1CCN(Cc2ccccc2)CC1)c1ccc(OC2CCN(Cc3ccc(OC(F)(F)F)cc3)CC2)c(F)c1 [Compound 57, N-(1-benzylpiperidin-4-yl)-3-fluoro-4-(1-(4-(trifluoromethoxy)benzyl)piperidin-4-yloxy)benzamide] | < 1000
CN1CCC(NC(=O)c2ccc(OC3CCN(Cc4ccc(C(F)(F)F)cc4)CC3)c(Cl)c2)CC1 [Compound 58, 3-chloro-N-(1-methylpiperidin-4-yl)-4-(1-(4-(trifluoromethyl)benzyl)piperidin-4-yloxy)benzamide] | 1000 to 10000
O=C(NC1CCN(Cc2ccccc2)CC1)c1ccc(OC2CCN(Cc3cccc(C(F)(F)F)c3)CC2)c(F)c1 [Compound 59, N-(1-benzylpiperidin-4-yl)-3-fluoro-4-(1-(3-(trifluoromethyl)benzyl)piperidin-4-yloxy)benzamide] | < 1000
O=C(NC1CCN(Cc2ccccc2)CC1)c1ccc(OC2CCN(Cc3cccc(C(F)(F)F)c3)CC2)c(Cl)c1 [Compound 60, N-(1-benzylpiperidin-4-yl)-3-chloro-4-(1-(3-(trifluoromethyl)benzyl)piperidin-4-yloxy)benzamide] | < 1000
O=C(NC1CCN(Cc2ccccc2)CC1)c1ccc(OC2CCN(Cc3ccc(F)cc3)CC2)c(F)c1 [Compound 61, N-(1-benzylpiperidin-4-yl)-3-fluoro-4-(1-(4-fluorobenzyl)piperidin-4-yloxy)benzamide] | < 1000
O=C(NC1CCN(Cc2ccccc2)CC1)c1cc(Cl)c(OC2CCN(Cc3cccc(C(F)(F)F)c3)CC2)c(Cl)c1 [Compound 62, N-(1-benzylpiperidin-4-yl)-3,5-dichloro-4-(1-(3-(trifluoromethyl)benzyl)piperidin-4-yloxy)benzamide] | < 1000
O=C(NC1CCN(Cc2ccccc2)CC1)c1ccc(OC2CCN(Cc3ccc(OC(F)(F)F)cc3)CC2)cc1 [Compound 63, N-(1-benzylpiperidin-4-yl)-4-(1-(4-(trifluoromethoxy)benzyl)piperidin-4-yloxy)benzamide] | < 1000

Continued, values first:

EC50 [nM] | SMILES
1000 to 10000 | O=C(NC1CCN(Cc2ccccc2)CC1)c1ccc(OC2CCN(Cc3cccnc3)CC2)c(F)c1 [Compound 38, N-(1-benzylpiperidin-4-yl)-3-fluoro-4-(1-(pyridin-3-ylmethyl)piperidin-4-yloxy)benzamide]
< 1000 | N#Cc1ccc(N2CCC(Oc3ccc(C(=O)NC4CCN(Cc5ccncc5)CC4)cc3F)CC2)cc1 [Compound 44, 4-(1-(4-cyanophenyl)piperidin-4-yloxy)-3-fluoro-N-(1-(pyridin-4-ylmethyl)piperidin-4-yl)benzamide]
< 1000 | O=C(NC1CCN(Cc2ccccc2)CC1)c1cccc(OC2CCN(c3ccc(C(F)(F)F)cc3)CC2)c1 [Compound 46, N-(1-benzylpiperidin-4-yl)-3-(1-(4-(trifluoromethyl)phenyl)piperidin-4-yloxy)benzamide]
< 1000 | O=C(NC1CCN(Cc2ccccc2)CC1)c1ccc(OC2CCN(c3ccc(C(F)(F)F)cc3)CC2)cc1Cl [Compound 47, N-(1-benzylpiperidin-4-yl)-2-chloro-4-(1-(4-(trifluoromethyl)phenyl)piperidin-4-yloxy)benzamide]
< 1000 | N#Cc1ccc(N2CCC(Oc3cccc(C(=O)NC4CCN(Cc5ccccc5)CC4)c3)CC2)cc1 [Compound 48, N-(1-benzylpiperidin-4-yl)-3-(1-(4-cyanophenyl)piperidin-4-yloxy)benzamide]
< 1000 | N#Cc1ccc(N2CCC(Oc3ccc(C(=O)NC4CCN(Cc5ccccc5)CC4)c(Cl)c3)CC2)cc1 [Compound 49, N-(1-benzylpiperidin-4-yl)-2-chloro-4-(1-(4-cyanophenyl)piperidin-4-yloxy)benzamide]
1000 to 10000 | N#Cc1ccc(CN2CCC(Oc3cccc(C(=O)NC4CCN(Cc5ccccc5)CC4)c3)CC2)cc1 [Compound 50, N-(1-benzylpiperidin-4-yl)-3-(1-(4-cyanobenzyl)piperidin-4-yloxy)benzamide]
1000 to 10000 | O=C(NC1CCN(Cc2ccccc2)CC1)c1cccc(OC2CCN(Cc3ccc(C(F)(F)F)cc3)CC2)c1 [Compound 52, N-(1-benzylpiperidin-4-yl)-3-(1-(4-(trifluoromethyl)benzyl)piperidin-4-yloxy)benzamide]
10000 to 20000 | O=C(NC1CCN(Cc2ccccc2)CC1)c1cccc(OC2CCN(c3ccncc3)CC2)c1 [Compound 53, N-(1-benzylpiperidin-4-yl)-3-(1-(pyridin-4-yl)piperidin-4-yloxy)benzamide]

From patent publication US8697727B2, “N-substituted-heterocycloalkyloxybenzamide compounds and methods of use” (Rigel Pharmaceuticals, Inc., priority 2006, dated 2014)
